We go through 17 molecules from ChEMBL document CHEMBL6092170, “Activity of the Caged Xanthone Morellic Acid against Vancomycin-Resistant Enterococcus Infection by Targeting the Bacterial Membrane” (2024).

For orientation: MIC means the lowest concentration found to suppress growth.

The test system of test [1] is Enterococcus faecalis. Put plainly: Antibacterial activity against vancomycin-resistant Enterococcus faecalis ATCC 51299 incubated for 24 hrs by CLSI based microdilution method. It is filed as functional. (Dilution methods test growth across graded concentrations, often in twofold steps.)
Test [2] concerns Staphylococcus aureus. The test can be described thus: Antibacterial activity against methicillin-resistant Staphylococcus aureus incubated for 24 hrs by CLSI based microdilution method. The test is classed as functional.
The subject of test [3] is Enterococcus faecalis. The test can be described thus: Disruption of membrane integrity in vancomycin-resistant Enterococcus faecalis ATCC 51299 at 2 times MIC incubated for 2 hrs by SYTOX Green staining based CLSM analysis. The test is classed as functional, organism-based.
Test [4] concerns Enterococcus faecalis. The test can be described thus: Disruption of membrane integrity in vancomycin-resistant Enterococcus faecalis ATCC 51299 at 2 times MIC incubated for 2 hrs by Hoechst staining based CLSM analysis. The test is classed as functional, organism-based.
Test [5] deals with Enterococcus faecalis. Put plainly: Disruption of membrane integrity in vancomycin-resistant Enterococcus faecalis ATCC 51299 at 2 times MIC incubated for 2 hrs by PI staining based CLSM analysis. The test is classed as functional, organism-based.
Test [6] has as its system Staphylococcus aureus. Put plainly: Antibacterial activity against Staphylococcus aureus assessed as bacterial growth inhibition at 0.5 to 4 times MIC measured for 4 hrs by absorbance based assay. The test is classed as functional, organism-based.
Test [7] deals with Enterococcus faecalis. The test can be described thus: Antibacterial activity against vancomycin-resistant Enterococcus faecalis ATCC 51299 infected in specific pathogen-free Kunming mouse model of abdominal infection assessed as reduction in bacterial load in kidney at 10 mg/kg, ip measured after 72 hrs by plate counting method. The test is classed as functional, organism-based.

Test [8] has as its system Enterococcus faecalis. Put plainly: Antibacterial activity against vancomycin-resistant Enterococcus faecalis ATCC 51299 infected in specific pathogen-free Kunming mouse model of abdominal infection assessed as reduction in bacterial load in spleen at 10 mg/kg, ip measured after 72 hrs by plate counting method. The test is classed as functional, organism-based.
Test [9] concerns Enterococcus faecalis. The test can be described thus: Antibacterial activity against vancomycin-resistant Enterococcus faecalis ATCC 51299 infected in specific pathogen-free Kunming mouse model of abdominal infection assessed as reduction in bacterial load in abdominal effusion at 10 mg/kg, ip measured after 72 hrs by plate counting method. It is filed as functional, organism-based.

Test [10] concerns Enterococcus faecalis. The test can be described thus: Disruption of morphology in vancomycin-resistant Enterococcus faecalis ATCC 51299 at 4 times MIC incubated for 18 hrs by SEM analysis. The test is classed as functional, organism-based.
In test [11] the test system is Enterococcus faecalis. Put plainly: Antibacterial activity against vancomycin-resistant Enterococcus faecalis ATCC 51299 infected in specific pathogen-free Kunming mouse model of abdominal infection assessed as reduction in bacterial load in liver at 10 mg/kg, ip measured after 72 hrs by plate counting method. The test is classed as functional, organism-based.
Test [12] has as its system Enterococcus faecalis. Put plainly: Induction of resistance development in vancomycin-resistant Enterococcus faecalis ATCC 51299 at sub-MIC measured after 20 days of continuous passages. It is filed as functional, organism-based. The settings on record: time 20.0 day.
Test [13] has as its system Enterococcus faecalis. The test can be described thus: Induction of resistance development in vancomycin-resistant Enterococcus faecalis ATCC 51299 assessed as fold increase in activity at sub-MIC measured after 4 days of continuous passages relative to control. The settings on record: time 4 day. It is filed as functional.
Test [14] has as its system Enterococcus faecalis. The test can be described thus: Antibacterial activity against vancomycin-resistant Enterococcus faecalis ATCC 51299 assessed as bacterial growth inhibition at 0.5 to 4 times MIC measured after 12 hrs by absorbance based assay. The test is classed as functional, organism-based.

Converted amounts (≈) assume the structure as drawn. The source made the active and inactive calls. The calls are words filed in the database; no cut-off is given here.

As to `COc1c(O)cc2oc3cc(O)c(CC=C(C)C)c(O)c3c(=O)c2c1CC=C(C)C` [MANGOSTIN], the MIC against Enterococcus faecalis [1] and with Staphylococcus aureus [2] was 4 µg/mL (≈ 9.75 µM) throughout.
`CC(C)=CCc1c(O)cc2oc3cc(O)c(O)c(CCC(C)(C)O)c3c(=O)c2c1O`: the figures for the MIC in the test with Enterococcus faecalis [1] and against Staphylococcus aureus [2] were over 16 µg/mL and 4 µg/mL (≈ 9.65 µM), respectively.
On the same counts, the results for `CC(C)=CCC[C@]1(C)C=Cc2c(O)c3c(c(CC=C(C)C)c2O1)O[C@]12C(=C[C@@H]4C[C@H]1C(C)(C)O[C@@]2(C/C=C(/C)C(=O)O)C4=O)C3=O` [GAMBOGIC ACID] are 4 µg/mL (≈ 6.36 µM) and 4 µg/mL (≈ 6.36 µM).
In the case of `CC[C@H](C)[C@H](NC(=O)CN)C(=O)NCC(=O)N[C@@H](C)C(=O)N[C@H](C(=O)N[C@@H](CC(C)C)C(=O)N[C@@H](CCCCN)C(=O)N[C@H](C(=O)N[C@@H](CC(C)C)C(=O)N[C@H](C(=O)N[C@H](C(=O)NCC(=O)N[C@@H](CC(C)C)C(=O)N1CCC[C@H]1C(=O)N[C@@H](C)C(=O)N[C@@H](CC(C)C)C(=O)N[C@H](C(=O)N[C@@H](CO)C(=O)N[C@@H](Cc1c[nH]c2ccccc12)C(=O)N[C@H](C(=O)N[C@@H](CCCCN)C(=O)N[C@@H](CCCNC(=N)N)C(=O)N[C@@H](CCCCN)C(=O)N[C@@H](CCCNC(=N)N)C(=O)N[C@@H](CCC(N)=O)C(=O)N[C@@H](CCC(N)=O)C(N)=O)[C@@H](C)CC)[C@@H](C)CC)[C@@H](C)O)[C@@H](C)O)C(C)C)C(C)C`, the outcome in the test on Enterococcus faecalis [3], in the test with Enterococcus faecalis [4] and with Enterococcus faecalis [5] was Active.
`CC1(C)S[C@@H]2[C@H](NC(=O)[C@H](N)c3ccccc3)C(=O)N2[C@H]1C(=O)O` [AMPICILLIN]: the inhibition entry with Staphylococcus aureus [6] is “Active”. In addition, the result in the test on Enterococcus faecalis [7], in the test on Enterococcus faecalis [8], in the test on Enterococcus faecalis [9], in the test with Enterococcus faecalis [10] and with Enterococcus faecalis [11] was Active. The molecule further gave an MIC with Enterococcus faecalis [1] of 4 µg/mL (≈ 11.4 µM).
For the molecule `COc1c(O)cc2oc3cc(O)c(CCC(C)(C)O)c(O)c3c(=O)c2c1CC=C(C)C`, the MIC in the test with Enterococcus faecalis [1] and against Staphylococcus aureus [2] was 16 µg/mL (≈ 37.3 µM) throughout.
Turning to `CC(C)=CCC[C@]1(C)CC(O)c2c(O)c3c(c(CC=C(C)C)c2O1)O[C@]12C(=C[C@@H]4C[C@H]1C(C)(C)O[C@@]2(C/C=C(/C)C(=O)O)C4=O)C3=O` (stereo partly drawn), the values for the MIC with Enterococcus faecalis [1] and against Staphylococcus aureus [2] were 16 µg/mL (≈ 24.7 µM) and 8 µg/mL (≈ 12.4 µM), respectively.
With `CCCCCCCCCC(=O)N[C@@H](Cc1c[nH]c2ccccc12)C(=O)N[C@@H](CC(N)=O)C(=O)N[C@@H](CC(=O)O)C(=O)N[C@@H]1C(=O)NCC(=O)N[C@@H](CCCN)C(=O)N[C@@H](CC(=O)O)C(=O)N[C@H](C)C(=O)N[C@@H](CC(=O)O)C(=O)NCC(=O)N[C@H](CO)C(=O)N[C@@H]([C@@H](C)CC(=O)O)C(=O)N[C@@H](CC(=O)c2ccccc2N)C(=O)O[C@@H]1C`, in the test on Enterococcus faecalis [12], the result was inactive. In addition, the “fold change (FC)” value with Enterococcus faecalis [13] is 32.
As to `COc1c(O)cc2oc3cc(O)c(CC=C(C)C)c(O)c3c(=O)c2c1CCC(C)(C)O` [GARCINONE D], the MIC in the test on Enterococcus faecalis [1] was 4 µg/mL (≈ 9.34 µM); against Staphylococcus aureus [2], 8 µg/mL (≈ 18.7 µM).
For `CC(C)=CCc1c(O)c(CC=C(C)C)c2oc3c(O)ccc(O)c3c(=O)c2c1O` [GARTANIN], the MIC with Enterococcus faecalis [1] and in the test with Staphylococcus aureus [2] was over 16 µg/mL throughout.
With `COc1cc2oc3cc(OC)c(OC)c(CC=C(C)C)c3c(=O)c2c(O)c1CC=C(C)C`, the MIC against Enterococcus faecalis [1] and in the test on Staphylococcus aureus [2] was over 16 µg/mL throughout.
For the molecule `CC(C)=CCc1c(O)cc2oc3cc(O)c(O)c(CC=C(C)C)c3c(=O)c2c1O`, the MIC with Enterococcus faecalis [1] and with Staphylococcus aureus [2] was 4 µg/mL (≈ 10.1 µM) in each case.
On to `CO[C@@]1(NC(=O)Cc2cccs2)C(=O)N2C(C(=O)O)=C(COC(N)=O)CS[C@@H]21` [CEFOXITIN], for which, in the test with Staphylococcus aureus [2], the MIC was over 16 µg/mL.
`C=C(C)C1CC[C@]2(C)CC1c1c(O)c3c(c(CC=C(C)C)c1O2)O[C@]12C(=C[C@@H]4CC1C(C)(C)OC2(C/C=C(\C)C(=O)O)C4=O)C3=O` (stereo partly drawn): the minimal inhibitory concentration (MIC) against Enterococcus faecalis [1] and with Staphylococcus aureus [2] was over 16 µg/mL each time.
`COc1cc2oc3cc(O)c(OC)c(CC=C(C)C)c3c(=O)c2c(O)c1CC=C(C)C`: the minimal inhibitory concentration (MIC) in the test on Enterococcus faecalis [1] is 16 µg/mL (≈ 37.7 µM); with Staphylococcus aureus [2], over 16 µg/mL.
Take `CN[C@H](CC(C)C)C(=O)N[C@H]1C(=O)N[C@@H](CC(N)=O)C(=O)N[C@H]2C(=O)N[C@H]3C(=O)N[C@H](C(=O)N[C@H](C(=O)O)c4cc(O)cc(O)c4-c4cc3ccc4O)[C@H](O)c3ccc(c(Cl)c3)Oc3cc2cc(c3O[C@@H]2O[C@H](CO)[C@@H](O)[C@H](O)[C@H]2O[C@H]2C[C@](C)(N)[C@H](O)[C@H](C)O2)Oc2ccc(cc2Cl)[C@H]1O`: the inhibition result with Enterococcus faecalis [14] is “inactive”.
Turning to `CC(C)=CCc1c(O)c(CC=C(C)C)c2oc3c(O)cccc3c(=O)c2c1O` [8-DEOXYGARTANIN], the MIC with Enterococcus faecalis [1] and against Staphylococcus aureus [2] was over 16 µg/mL each time.
